Data as given in PubChem BioAssay AID248 (DTP/NCI, 2004).
Where “and” joins values, the source holds several entries; their conditions need not be identical. Equal values may be shown once. Inconclusive results and toxic doses are left out. Rule as the data show it: active = T/C of 150% or more; inactive = T/C below 125%.

System: L1210 leukemia ip in BDF1 mice, survival T/C
Assay: NCI In Vivo Anticancer Drug Screen. Data for tumor model L1210 Leukemia (intraperitoneal) in B6D2F1 (BDF1) mice
Conditions: endpoint: mean survival time, higher = longer survival
Method in brief: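 Ratio derived from survival: compound-dosed mice over vehicle-dosed mice, all bearing a transplantable tumor.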

[1] = dose: 100.0 mg/kg/injection, schedule: Q04DX003 (ip), vehicle: saline with Tween-80
[2] = dose: 200.0 mg/kg/injection, schedule: Q04DX003 (ip), vehicle: saline with Tween-80
[3] = dose: 400.0 mg/kg/injection, schedule: Q04DX003 (ip), vehicle: saline with Tween-80
[4] = dose: 100.0 mg/kg/injection, schedule: Q01DX001 (ip), vehicle: saline
[5] = dose: 100.0 mg/kg/injection, schedule: Q04DX003 (ip), vehicle: saline
[6] = dose: 200.0 mg/kg/injection, schedule: Q01DX001 (ip), vehicle: saline
[7] = dose: 200.0 mg/kg/injection, schedule: Q04DX003 (ip), vehicle: saline
[8] = dose: 400.0 mg/kg/injection, schedule: Q01DX001 (ip), vehicle: saline
[9] = dose: 400.0 mg/kg/injection, schedule: Q04DX003 (ip), vehicle: saline
[10] = dose: 100.0 mg/kg/injection, schedule: Q04DX002 (ip), vehicle: saline
[11] = dose: 200.0 mg/kg/injection, schedule: Q04DX002 (ip), vehicle: saline
[12] = dose: 100.0 mg/kg/injection, schedule: Q01DX009 (ip), vehicle: Klucel (hydroxypropylcellulose) (HPC)
[13] = dose: 200.0 mg/kg/injection, schedule: Q01DX009 (ip), vehicle: Klucel (hydroxypropylcellulose) (HPC)
[14] = dose: 400.0 mg/kg/injection, schedule: Q01DX009 (ip), vehicle: Klucel (hydroxypropylcellulose) (HPC)
[15] = dose: 100.0 mg/kg/injection, schedule: Q01DX009 (ip), vehicle: saline with Tween-80
[16] = dose: 100.0 mg/kg/injection, schedule: Q04DX003 (ip), vehicle: Klucel (hydroxypropylcellulose) (HPC)
[17] = dose: 200.0 mg/kg/injection, schedule: Q04DX003 (ip), vehicle: Klucel (hydroxypropylcellulose) (HPC)
[18] = dose: 400.0 mg/kg/injection, schedule: Q04DX003 (ip), vehicle: Klucel (hydroxypropylcellulose) (HPC)
[19] = dose: 100.0 mg/kg/injection, schedule: Q01DX001 (ip), vehicle: saline with Tween-80
[20] = dose: 200.0 mg/kg/injection, schedule: Q01DX001 (ip), vehicle: saline with Tween-80
[21] = dose: 400.0 mg/kg/injection, schedule: Q01DX001 (ip), vehicle: saline with Tween-80
[22] = dose: 25.0 mg/kg/injection, schedule: Q01DX009 (ip), vehicle: Klucel (hydroxypropylcellulose) (HPC)
[23] = dose: 50.0 mg/kg/injection, schedule: Q01DX009 (ip), vehicle: Klucel (hydroxypropylcellulose) (HPC)

Measured: T/C

O=C(O)CCCc1cccc2ccccc12
inactive: dose: 37.0 mg/kg/injection, schedule: Q01DX009 (ip), vehicle: gum acacia 97 % of control | dose: 75.0 mg/kg/injection, schedule: Q01DX009 (ip), vehicle: gum acacia 103 % of control | dose: 100.0 mg/kg/injection, schedule: Q04DX003 (ip), vehicle: gum acacia 97 % of control | dose: 150.0 mg/kg/injection, schedule: Q01DX009 (ip), vehicle: gum acacia 92 % of control | dose: 200.0 mg/kg/injection, schedule: Q04DX003 (ip), vehicle: gum acacia 86 % of control

Cc1ccc(C(C)(c2ccccc2)C(C)(CC=O)CC(=O)O)cc1 (configuration not stated)
inactive: [1] 92 % of control | [2] 92 % of control | [3] 96 % of control

CCOC(=O)C1=C2C(C(=O)OCC)C(O)=C(C(=O)OCC)C2C(C(=O)OCC)C1=O (configuration not stated)
inactive: [4] 103 % of control | dose: 100.0 mg/kg/injection, schedule: Q01DX009 (ip), vehicle: saline 104 % of control | [5] 97 % of control | [6] 92 % of control | dose: 200.0 mg/kg/injection, schedule: Q01DX009 (ip), vehicle: saline 104 % of control | [7] 103 % of control | [8] 97 % of control | dose: 400.0 mg/kg/injection, schedule: Q01DX009 (ip), vehicle: saline 109 % of control | [9] 117 % of control

O=C(OCc1ccccc1CN1CCCC1)c1ccc([N+](=O)[O-])cc1Cl
inactive: [10] 107 % of control | [11] 96 % of control

CCOC(=O)c1ccc(NC(=O)Nc2cc(C)ccn2)cc1
inactive: [12] 96 % of control | [13] 107 % of control | [14] 105 % of control

O=C(NC(O)C(Cl)(Cl)Cl)c1ccccc1O (configuration not stated)
inactive: [15] 95 % of control | [1] 93 % of control | dose: 200.0 mg/kg/injection, schedule: Q01DX009 (ip), vehicle: saline with Tween-80 103 % of control | [2] 95 % of control | [3] 95 % of control

O=[N+]([O-])c1ccc2cccnc2c1
inactive: dose: 75.0 mg/kg/injection, schedule: Q01DX001 (ip), vehicle: carboxymethylcellulose (CMC) 106 % of control | dose: 150.0 mg/kg/injection, schedule: Q01DX001 (ip), vehicle: carboxymethylcellulose (CMC) 104 % of control | dose: 300.0 mg/kg/injection, schedule: Q01DX001 (ip), vehicle: carboxymethylcellulose (CMC) 101 % of control

c1ccc(-c2csc(-c3nc(-c4ccccc4)cs3)n2)cc1
inactive: [16] 90 % of control | [17] 95 % of control | [18] 102 % of control

Nc1ncnc(N)c1NC(=O)c1cccc(F)c1
inactive: [19] 106 % of control | [20] 101 % of control | [21] 102 % of control

CCCCCCCCCCCCCCCC[N+](C)(C)Cc1ccccc1
inactive: dose: 0.5 mg/kg/injection, schedule: Q04DX002 (ip), vehicle: Klucel (hydroxypropylcellulose) (HPC) 98 % of control | dose: 1.0 mg/kg/injection, schedule: Q04DX002 (ip), vehicle: Klucel (hydroxypropylcellulose) (HPC) 103 % of control | dose: 2.0 mg/kg/injection, schedule: Q04DX002 (ip), vehicle: Klucel (hydroxypropylcellulose) (HPC) 103 % of control

Cc1cc(Cl)ccc1NC(=O)c1ccccc1C(=O)O
inactive: [12] 96 % of control | [16] 98 % of control | [13] 93 % of control | [17] 91 % of control | [14] 102 % of control | [18] 93 % of control

CN(C)/C=N/N1CCN(C)CC1
inactive: [10] 115 % of control | [11] 101 % of control | dose: 400.0 mg/kg/injection, schedule: Q04DX002 (ip), vehicle: saline 97 % of control

CC(C)=CCC(C)c1ccncc1 (configuration not stated)
inactive: [4] 102 % of control | [6] 97 % of control | [8] 102 % of control

CCN(CC)C(=S)Nc1ccc([N+](=O)[O-])cc1
inactive: [12] 104 % of control | [13] 86 % of control | [14] 100 % of control

CNc1ccccc1Cc1ccccc1
inactive: [12] 96 % of control | [16] 103 % of control | [13] 99 % of control | [17] 93 % of control | [18] 98 % of control

Cc1ccc(S(=O)(=O)NC(=O)NC(C)C(=O)O)cc1 (configuration not stated)
inactive: [5] 102 % of control | [7] 97 % of control | [9] 96 % of control

Oc1ccc2ccccc2c1N=Nc1cc[c]([Hg][Cl])cc1
inactive: dose: 5.0 mg/kg/injection, schedule: Q01DX001 (ip), vehicle: saline 91 % of control | dose: 10.0 mg/kg/injection, schedule: Q01DX001 (ip), vehicle: saline 107 % of control | dose: 20.0 mg/kg/injection, schedule: Q01DX001 (ip), vehicle: saline 96 % of control | dose: 40.0 mg/kg/injection, schedule: Q01DX001 (ip), vehicle: saline 100 % of control

CC(=O)[O][Pb]([c]1ccccc1)([c]1ccccc1)[c]1ccccc1
inactive: dose: 0.5 mg/kg/injection, schedule: Q01DX015 (ip), vehicle: carboxymethylcellulose (CMC) 112 % of control | dose: 1.0 mg/kg/injection, schedule: Q01DX015 (ip), vehicle: carboxymethylcellulose (CMC) 90 % of control | dose: 2.0 mg/kg/injection, schedule: Q01DX015 (ip), vehicle: carboxymethylcellulose (CMC) 87 % of control | dose: 4.0 mg/kg/injection, schedule: Q01DX015 (ip), vehicle: carboxymethylcellulose (CMC) 96 % of control

Nc1nc(-c2ccc(O)cc2)nc2[nH]ncc12
inactive: dose: 100.0 mg/kg/injection, schedule: Q01DX001 (ip), vehicle: Klucel (hydroxypropylcellulose) (HPC) 91 % of control | dose: 200.0 mg/kg/injection, schedule: Q01DX001 (ip), vehicle: Klucel (hydroxypropylcellulose) (HPC) 100 % of control | dose: 400.0 mg/kg/injection, schedule: Q01DX001 (ip), vehicle: Klucel (hydroxypropylcellulose) (HPC) 94 % of control

Cc1cc(Cl)nc2ccc(Cc3ccc(Br)cc3)cc12
inactive: [4] 95 % of control | [6] 96 % of control | [8] 91 % of control

CC(=O)c1cccc(NC(=O)Oc2ccc(C(=O)OCc3ccccc3)cc2)c1
inactive: [12] 98 % of control | [13] 95 % of control | [14] 106 % of control

NC(CC(O)C(=O)O)C(=O)O (configuration not stated)
inactive: dose: 12.5 mg/kg/injection, schedule: Q04DX002 (ip), vehicle: saline 95 % of control | dose: 25.0 mg/kg/injection, schedule: Q04DX002 (ip), vehicle: saline 106 % of control and 96 % of control | dose: 50.0 mg/kg/injection, schedule: Q04DX002 (ip), vehicle: saline 106 % of control and 96 % of control | [19] 93 % of control | [10] 101 % of control | [20] 97 % of control | [21] 87 % of control

CC12CCC3c4ccc([O-])c([N+]#N)c4CCC3C1CCC2=O (configuration not stated)
inactive: [22] 103 % of control | [23] 87 % of control

NC1CCC2CCCCC2C1 (configuration not stated)
inactive: [22] 101 % of control | dose: 25.0 mg/kg/injection, schedule: Q04DX003 (ip), vehicle: Klucel (hydroxypropylcellulose) (HPC) 95 % of control | [23] 93 % of control | dose: 50.0 mg/kg/injection, schedule: Q04DX003 (ip), vehicle: Klucel (hydroxypropylcellulose) (HPC) 100 % of control | [12] 98 % of control | [16] 94 % of control

Cn1[nH]cc(/C=N/C(N)=O)c1=O
inactive: [4] 93 % of control | [6] 91 % of control | [8] 87 % of control

O=C1NC(CCl)(CCl)CO1
inactive: dose: 0.5 mg/kg/injection, schedule: Q01DX001 (ip), vehicle: saline 94 % of control | dose: 1.0 mg/kg/injection, schedule: Q01DX001 (ip), vehicle: saline 94 % of control | dose: 2.0 mg/kg/injection, schedule: Q01DX001 (ip), vehicle: saline 105 % of control

CCNC(=S)Nc1ccc(Cl)cc1
inactive: dose: 25.0 mg/kg/injection, schedule: Q01DX009 (ip), vehicle: saline with Tween-80 93 % of control | dose: 50.0 mg/kg/injection, schedule: Q01DX009 (ip), vehicle: saline with Tween-80 95 % of control | [15] 97 % of control | [1] 104 % of control

Cc1nnc([N+](=O)[O-])s1
inactive: dose: 12.5 mg/kg/injection, schedule: Q01DX009 (ip), vehicle: Klucel (hydroxypropylcellulose) (HPC) 107 % of control | [22] 112 % of control | [23] 102 % of control
